Laboratory results: PubChem BioAssay (NCI)
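In this assay, cells in 96-well plates receive the compound at five concentrations for 48 hours. Endpoints are linearly interpolated between the surrounding concentrations. Definition used: TGI = concentration required for complete inhibition of growth.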

How the values were obtained:
Experiment in all cases: NCI-60 cell line screen, 48 h
HOP-62 NSCLC = test system: HOP-62 NSCLC
A549 NSCLC = test system: A549 NSCLC
SR leukemia = test system: SR leukemia
LOX IMVI melanoma = test system: LOX IMVI melanoma
OVCAR-4 ovarian = test system: OVCAR-4 ovarian
SN12C renal = test system: SN12C renal
SK-MEL-2 melanoma = test system: SK-MEL-2 melanoma
MDA-N = test system: MDA-N
HCT-116 colon = test system: HCT-116 colon
EKVX NSCLC = test system: EKVX NSCLC
SK-OV-3 ovarian = test system: SK-OV-3 ovarian
OVCAR-8 ovarian = test system: OVCAR-8 ovarian
COLO 205 colon = test system: COLO 205 colon
K-562 leukemia = test system: K-562 leukemia
SF-539 CNS = test system: SF-539 CNS
NCI/ADR-RES ovarian = test system: NCI/ADR-RES ovarian
NCI-H226 lung = test system: NCI-H226 lung
BT-549 breast = test system: BT-549 breast
SF-268 CNS = test system: SF-268 CNS
KM12 colon = test system: KM12 colon
HS 578T breast = test system: HS 578T breast
HCT-15 colon = test system: HCT-15 colon
A498 renal = test system: A498 renal
M14 melanoma = test system: M14 melanoma
UO-31 renal = test system: UO-31 renal
HCC-2998 colon = test system: HCC-2998 colon
NCI-H23 lung = test system: NCI-H23 lung
NCI-H522 lung = test system: NCI-H522 lung
PC-3 prostate = test system: PC-3 prostate
HOP-92 NSCLC = test system: HOP-92 NSCLC
SK-MEL-5 melanoma = test system: SK-MEL-5 melanoma
HL-60(TB) leukemia = test system: HL-60(TB) leukemia
TK-10 renal = test system: TK-10 renal
CAKI-1 renal = test system: CAKI-1 renal
OVCAR-3 ovarian = test system: OVCAR-3 ovarian
RPMI-8226 leukemia = test system: RPMI-8226 leukemia
NCI-H460 lung = test system: NCI-H460 lung
MDA-MB-435 = test system: MDA-MB-435
MALME-3M melanoma = test system: MALME-3M melanoma
T-47D breast = test system: T-47D breast
SF-295 CNS = test system: SF-295 CNS
SW-620 colon = test system: SW-620 colon
SNB-19 CNS = test system: SNB-19 CNS
U251 CNS = test system: U251 CNS
786-0 renal = test system: 786-0 renal
UACC-62 melanoma = test system: UACC-62 melanoma
DU-145 prostate = test system: DU-145 prostate
IGROV1 ovarian = test system: IGROV1 ovarian
SNB-75 CNS = test system: SNB-75 CNS
UACC-257 melanoma = test system: UACC-257 melanoma
OVCAR-5 ovarian = test system: OVCAR-5 ovarian
MCF7 breast = test system: MCF7 breast
HT29 colon = test system: HT29 colon
RXF 393 renal = test system: RXF 393 renal
ACHN renal = test system: ACHN renal
SK-MEL-28 melanoma = test system: SK-MEL-28 melanoma
CCRF-CEM leukemia = test system: CCRF-CEM leukemia
MOLT-4 leukemia = test system: MOLT-4 leukemia

## COC(=O)c1c(C)nc2c1cc(O)c1[nH]c(C)c(C)nc12
HOP-62 NSCLC
  TGI: 71.7 µM
A549 NSCLC
  TGI: > 100 µM
SR leukemia
  TGI: > 100 µM
LOX IMVI melanoma
  TGI: > 100 µM
OVCAR-4 ovarian
  TGI: > 100 µM
SN12C renal
  TGI: > 100 µM
SK-MEL-2 melanoma
  TGI: > 100 µM
MDA-N
  TGI: > 100 µM
HCT-116 colon
  TGI: > 100 µM
EKVX NSCLC
  TGI: > 100 µM
SK-OV-3 ovarian
  TGI: > 100 µM
OVCAR-8 ovarian
  TGI: > 100 µM
COLO 205 colon
  TGI: > 100 µM
K-562 leukemia
  TGI: > 100 µM
SF-539 CNS
  TGI: > 100 µM
NCI/ADR-RES ovarian
  TGI: > 100 µM
NCI-H226 lung
  TGI: > 100 µM
BT-549 breast
  TGI: > 100 µM
SF-268 CNS
  TGI: > 100 µM
KM12 colon
  TGI: > 100 µM
HS 578T breast
  TGI: > 100 µM
HCT-15 colon
  TGI: > 100 µM
A498 renal
  TGI: > 100 µM
M14 melanoma
  TGI: > 100 µM
UO-31 renal
  TGI: > 100 µM
HCC-2998 colon
  TGI: > 100 µM
NCI-H23 lung
  TGI: > 100 µM
NCI-H522 lung
  TGI: > 100 µM
PC-3 prostate
  TGI: > 100 µM
HOP-92 NSCLC
  TGI: > 100 µM
SK-MEL-5 melanoma
  TGI: > 100 µM
HL-60(TB) leukemia
  TGI: > 100 µM
TK-10 renal
  TGI: > 100 µM
CAKI-1 renal
  TGI: > 100 µM
OVCAR-3 ovarian
  TGI: > 100 µM
RPMI-8226 leukemia
  TGI: > 100 µM
NCI-H460 lung
  TGI: > 100 µM
MDA-MB-435
  TGI: > 100 µM
MALME-3M melanoma
  TGI: > 100 µM
T-47D breast
  TGI: > 100 µM
SF-295 CNS
  TGI: > 100 µM
SW-620 colon
  TGI: > 100 µM
SNB-19 CNS
  TGI: > 100 µM
U251 CNS
  TGI: > 100 µM
786-0 renal
  TGI: > 100 µM
UACC-62 melanoma
  TGI: > 100 µM
DU-145 prostate
  TGI: > 100 µM
IGROV1 ovarian
  TGI: > 100 µM
SNB-75 CNS
  TGI: 71.8 µM
UACC-257 melanoma
  TGI: > 100 µM
OVCAR-5 ovarian
  TGI: > 100 µM
MCF7 breast
  TGI: > 100 µM
HT29 colon
  TGI: > 100 µM
RXF 393 renal
  TGI: > 100 µM
ACHN renal
  TGI: > 100 µM
SK-MEL-28 melanoma
  TGI: > 100 µM
CCRF-CEM leukemia
  TGI: > 100 µM
MOLT-4 leukemia
  TGI: > 100 µM

## Cn1c2ccc3cc2c(=S)c2cc(ccc21)OCCOCCOCCOCCOCCOCCO3
HOP-62 NSCLC
  TGI: > 10 µM
A549 NSCLC
  TGI: > 10 µM
SR leukemia
  TGI: > 10 µM
LOX IMVI melanoma
  TGI: > 10 µM
OVCAR-4 ovarian
  TGI: > 10 µM
SN12C renal
  TGI: > 10 µM
SK-MEL-2 melanoma
  TGI: > 10 µM
MDA-N
  TGI: > 10 µM
HCT-116 colon
  TGI: > 10 µM
EKVX NSCLC
  TGI: > 10 µM
SK-OV-3 ovarian
  TGI: > 10 µM
OVCAR-8 ovarian
  TGI: > 10 µM
COLO 205 colon
  TGI: > 10 µM
K-562 leukemia
  TGI: > 10 µM
SF-539 CNS
  TGI: > 10 µM
NCI/ADR-RES ovarian
  TGI: > 10 µM
NCI-H226 lung
  TGI: > 10 µM
BT-549 breast
  TGI: > 10 µM
SF-268 CNS
  TGI: > 10 µM
KM12 colon
  TGI: > 10 µM
HS 578T breast
  TGI: > 10 µM
HCT-15 colon
  TGI: > 10 µM
A498 renal
  TGI: > 10 µM
M14 melanoma
  TGI: > 10 µM
UO-31 renal
  TGI: > 10 µM
HCC-2998 colon
  TGI: > 10 µM
NCI-H23 lung
  TGI: > 10 µM
NCI-H522 lung
  TGI: > 10 µM
PC-3 prostate
  TGI: > 10 µM
HOP-92 NSCLC
  TGI: > 10 µM
SK-MEL-5 melanoma
  TGI: > 10 µM
HL-60(TB) leukemia
  TGI: > 10 µM
TK-10 renal
  TGI: > 10 µM
CAKI-1 renal
  TGI: > 10 µM
OVCAR-3 ovarian
  TGI: > 10 µM
RPMI-8226 leukemia
  TGI: > 10 µM
NCI-H460 lung
  TGI: > 10 µM
MALME-3M melanoma
  TGI: > 10 µM
T-47D breast
  TGI: > 10 µM
SF-295 CNS
  TGI: > 10 µM
SW-620 colon
  TGI: > 10 µM
SNB-19 CNS
  TGI: > 10 µM
U251 CNS
  TGI: > 10 µM
786-0 renal
  TGI: > 10 µM
DU-145 prostate
  TGI: > 10 µM
IGROV1 ovarian
  TGI: > 10 µM
SNB-75 CNS
  TGI: > 10 µM
UACC-257 melanoma
  TGI: > 10 µM
OVCAR-5 ovarian
  TGI: > 10 µM
MCF7 breast
  TGI: > 10 µM
HT29 colon
  TGI: > 10 µM
RXF 393 renal
  TGI: > 10 µM
ACHN renal
  TGI: > 10 µM
SK-MEL-28 melanoma
  TGI: > 10 µM
CCRF-CEM leukemia
  TGI: > 10 µM
MOLT-4 leukemia
  TGI: > 10 µM
